Reference: PMC12171319, “3‐Oxabicyclo[3.1.1]heptane as an Isostere of meta‐Benzene” (Angewandte Chemie (International Ed. in English), 2025)
Converted amounts (≈) assume the structure as drawn. “And” between values parts separate entries of the source, which are not always exact repeats. Equal entries are not always repeated. Where two headings read alike, the source gives them in different places. One block for each compound: values may come before it.

What was measured:
[1] = Metabolic stability in human liver microsomes; format: in vitro ADME; settings: for remaining at […], 2 µM: 15 min
Description: 9. Metabolic Stability in Human Liver Microsomes
The objective of this study was to determine the metabolic stability of 3 test articles (EN300- […]
in human liver microsomes at five-time points over 40 minutes using HPLC-MS. Metabolic stability is defined as the percentage of parent compound lost over time in the presence of a metabolically active test system.
Potassium phosphate monobasic (Bio-Basic, Canada; Lot #N9016010)
Potassium phosphate dibasic (Bio-Basic, Canada; Lot #MA7100050) […]
Glucose-6-phosphate dehydrogenase from baker's yeast, type XV (Sigma-Aldrich, USA; Cat […]
D-Glucose-6-phosphate sodium salt (Sigma-Aldrich, USA; Cat #G7879-1G)
NADPH tetrasodium salt (BLD Pharmatech Ltd., Cat #BD116582)
Verapamil hydrochloride (Sigma Aldrich, USA; Cat #V4629)
Niclosamide (Sigma-Aldrich, USA; Cat #N3510)
DMSO stock solutions of the tested compounds 20 mM
Gradient HPLC system (Shimadzu)
Triple quadrupole mass-detector API 3000 with TurboIonSpray Ion Source (AB Sciex, Canada) […]
Multichannel pipettors 1-30 µL, 2-125 µL, 30-850 µL (Thermo Scientific) […]
All measurements were performed using the Shimadzu HPLC system including vacuum degasser, gradient pumps, reverse phase HPLC column, column oven, and autosampler. Mass spectrometric analysis was performed using an API 3000 mass spectrometer from Applied Biosystems/MDS Sciex (AB Sciex) with Turbo V ion source and TurboIonspray interface. The […]
and system control were performed using Analyst 1.6.3 software from AB Sciex.
Microsomal incubations were carried out in 96-well plates in 5 aliquots of 30 μL each (one for each time point). Liver microsomal incubation medium comprised of phosphate buffer (100 mM, pH 7.4), MgCl2 (3.3 mM), NADPН (3 mM), glucose-6-phosphate (5.3 mM), glucose-6-phosphate dehydrogenase (0.67 units/mL) with 0.42 mg of liver microsomal protein per mL. In the control reactions, the NADPH-cofactor system was substituted with phosphate buffer. Test compounds […]
100 rpm. Five-time points over 40 minutes were analyzed. The reactions were stopped by adding 5 volumes of acetonitrile with internal standard to incubation aliquots, followed by protein sedimentation by centrifuging at 5500 rpm for 5 min. Each reaction was performed in duplicates.
Supernatants were analyzed using the HPLC system coupled with a tandem mass spectrometer.
The elimination constant (kel), half-life (t1/2), and intrinsic clearance (Clint) were determined in a plot of […] versus time, using linear regression analysis:1
1 In order to indicate the quality of the linear regression analysis, the R2 (determination coefficient) values are provided.
In some cases, the last time point is excluded from the calculations to ensure acceptable logarithmic linearity of decay.

[2] = set-up: method as in earlier work; settings: cited from earlier work
[3] = Preliminary thermal stability, heating at 100 °C for 5 min; format: physicochemical; settings: monitored by 1H NMR and LC-MS
Description: In addition, we checked the preliminary thermal stability of two representative 3‐oxabicyclo[3.1.1]heptanes: carboxylic acid 11b and N‐Boc amino acid 40.

[4] = Experimental pKa of carboxylic acids; format: physicochemical; settings: for pKa: read-out: pKa (exp.)
Description: We also studied the influence of the replacement of the methylene group for the oxygen atom in the bicyclo[3.1.1]heptane skeleton on the electronic properties. For that, we experimentally measured pK a values of the bicyclo[3.1.1]heptane carboxylic acid 49, the 3‐oxabicyclo[3.1.1]heptane carboxylic acid 18b, and meta‐methyl benzoic acid (48) as a reference (Figure 5).^[ [34] ^]

[5] = physchem
[6] = Kinetic solubility in phosphate-buffered saline, pH 7.4; format: physicochemical; settings: for solubility at 2 h: PBS solubility
Description: page 239: 7. […] The data […] analysis software. […] page 240: Methods Kinetic solubility assay was performed according to Enamine's aqueous solubility SOP. Briefly, […] theoretical concentration of 400 μM in duplicates in phosphate-buffered saline pH 7.4 […] The experimental compound dilutions in PBS were further allowed to equilibrate at 25 °C on a thermostatic shaker for two hours and then filtered through HTS filter plates using a vacuum manifold. The filtrates of test […] prepared to theoretical concentrations of 0 μM (blank), 10 μM, 25 μM, 50 μM, 100 μM, and 200 […] Ondansetron was used as a reference compound to control proper assay performance. 200 μL of each sample was transferred to a 96-well plate and measured in the 230-550 nm range with a 5 nm step. The concentrations of compounds in PBS filtrate are calculated using a dedicated Microsoft Excel calculation script. Proper absorbance wavelengths for calculations are selected for each compound manually based on absorbance maximums (absolute absorbance unit values for the minimum and maximum concentration points within the 0 - 3 OD range). Each final dataset is visually evaluated by the operator, and goodness of fit (R2) is calculated for each calibration curve. […] close to the upper limit of the range may have higher actual solubility (e.g. 5'-deoxy-5- fluorouridine). The calibration curves are shown in Appendix*. […] Compound ID PBS solubility, pH 7.4, μM SE […] Ondansetron 128 126 127** 1.1 EN300-7362818 6 6 6 0.2 (Sonidegib) BCHep-Sonidegib (50) 5 3 4 0.9 Table S3. 2nd batch PBS solubility, pH 7.4, μM Compound ID SE […] Ondansetron 124 124 124** 0.1 EN300-45381956 (51) 34 34 34 0.2 *Goodness of fit (R2) in all titration curves as well as the variations between repeat measurements indicates a high quality of the experimental data in the current batch of test articles. **Ondansetron solubility data are consistent with those previously obtained. […]

[7] = in vitro; settings: human, 90 min, no verapamil; for Papp A→B: Caco-2, pH 7.4, Papp (AB); for Papp B→A: Caco-2, pH 7.4, Papp (BA)
[8] = test system: Hedgehog signaling pathway; settings: Mus musculus, NIH3T3, read-out: IC50 (HH signal): inhibition of the Hedgehog signaling pathway, Gli reporter NIH3T3 cell line
[9] = both sexes, human, liver microsomes, pH 7.4, Table S6, 1st batch, 2 µM
[10] = Table S4, 1st batch, incubation 1
[11] = Table S4, 1st batch, incubation 2
[12] = Table S4, 1st batch, incubation 3
[13] = 25 °C, pH 7.4, aqueous buffer, kinetic from dmso stock, pH 7.4, Incubation 1
[14] = 25 °C, pH 7.4, aqueous buffer, kinetic from dmso stock, pH 7.4, Incubation 2
[15] = 25 °C, pH 7.4, aqueous buffer, kinetic from dmso stock, pH 7.4, Mean

Structure (SMILES): Cc1cccc(C(=O)O)c1 [Compound 48, meta‐methyl benzoic acid]
pKa (exp.) [2]: 4.27 and 4.3

Structure (SMILES): CC(C)(C)OC(=O)NC12COCC(C(=O)O)(C1)C2 [Compound 40]
thermal stability [3]: remained stable

Structure (SMILES): O=C(O)C12COCC(c3ccc(Br)cc3)(C1)C2 [Compound 11b]
thermal stability [3]: remained stable

Structure (SMILES): CC12COCC(C(=O)O)(C1)C2 [Compound 18b]
pKa (exp.) [4]: 4.2
pKa [4]: 4.23

Structure (SMILES): CC12CCCC(C(=O)O)(C1)C2 [Compound 49]
pKa (exp.) [4]: 5.0
pKa [4]: 5.03

Structure (SMILES): Cc1nccn1CC1CCc2c(c3ccccc3n2C)C1=O (centres unmarked) [Ondansetron]
solubility at 2 h [6, 13]: 124 µM (≈ 36.4 µg/mL)
solubility at 2 h [6, 14]: 124 µM (≈ 36.4 µg/mL)
solubility at 2 h [6, 15]: 124 µM (≈ 36.4 µg/mL)
PBS solubility, pH 7.4, Mean ([6]; Table S2, 1st batch): 127 µM

Structure (SMILES): CC1CN(c2ccc(NC(=O)C34CCCC(c5ccc(OC(F)(F)F)cc5)(C3)C4)cn2)CC(C)O1 (centres unmarked) [Compound 50]
D [10]: 8.66E+04
D [11]: 8.31E+04
D [12]: 8.70E+04
IC50 [8]: 616 nM
logD at 1 h ([5]; pH 7.4, LogD, pH 7.4): ≥ 4.5
logD at 1 h ([5]; pH 7.4, LogD, pH 7.4 (overall of 3 incubations)): ≥ 4.5
logD at 1 h ([5]; pH 7.4, logD (7.4): experimental distribution coefficient in n-octanol/phosphate-buffered saline, pH 7.4): ≥ 4
half-life at 2 μM ([1]; both sexes, human, human liver microsomes, pH 7.4, human liver microsomes, read-out: t1/2: experimental half-time of a metabolic decomposition): 2 h
microsomal CLint at 2 μM ([1]; both sexes, human, human liver microsomes, pH 7.4, read-out: CLint: experimental metabolic stability in human liver microsomes): 14 µL/min/mg
remaining at 7 min, 2 µM [1, 9]: 92%
remaining at […], 2 µM [1, 9]: 98%
remaining at 25 min, 2 µM ([1]; both sexes, human, liver microsomes, pH 7.4, Table S6, 1st batch, 25 min, 2 µM): 88%
remaining at 40 min, 2 µM ([1]; both sexes, human, liver microsomes, pH 7.4, Table S6, 1st batch, 40 min, 2 µM, read-out: % Remaining, Mean of 2): 78%
remaining at 40 min, 2 µM ([1]; both sexes, human, liver microsomes, pH 7.4, Table S6, 1st batch, 40 min, no NADPH, read-out: % Remaining without cofactor, Mean of 2): 93%
k el at 2 µM ([1]; both sexes, human, liver microsomes, pH 7.4, Table S6, 1st batch): ~0.0001 s⁻¹
microsomal CLint at 2 μM ([1]; both sexes, human, liver microsomes, pH 7.4, Table S6, 1st batch, read-out: Clint): ~14 µL/min/mg
half-life at 2 μM ([1]; both sexes, human, liver microsomes, pH 7.4, Table S6, 1st batch, read-out: t1/2): ~2 h
solubility kinetic at 2 h ([6]; 25 °C, pH 7.4, aqueous buffer, kinetic from dmso stock): 4 µM (≈ 1.96 µg/mL)
solubility at 2 h [6, 13]: 5 µM (≈ 2.45 µg/mL)
solubility at 2 h [6, 14]: 3 µM (≈ 1.47 µg/mL)
solubility at 2 h [6, 15]: 4 µM (≈ 1.96 µg/mL)

The remaining lines, values ahead:

% Remaining, Mean of 2 ([1]; Table S6, 1st batch, 25 min, 2 µM): 4%
% Remaining without cofactor, Mean of 2 ([1]; Table S6, 1st batch, 40 min, no NADPH): 95%
% Remaining, Mean of 2 ([1]; Table S7, 2nd batch, 25 min, 2 µM): 11%
% Remaining, Mean of 2 ([1]; Table S7, 2nd batch, 40 min, 2 µM): 2%
remaining at 7 min, 2 µM [1, 9]: 46%
remaining at […], 2 µM [1, 9]: 15%
remaining at […], 2 µM ([1]; both sexes, human, liver microsomes, pH 7.4, Table S7, 2nd batch, 2 µM): 26%
microsomal CLint at 2 μM ([1]; both sexes, human, liver microsomes, pH 7.4, Table S7, 2nd batch, read-out: Clint): 223 µL/min/mg
Structure (SMILES): O=C(O)Cc1ccccc1Nc1c(Cl)cccc1Cl [Diclofenac]

D [10]: 8.21E+02
D [11]: 8.87E+02
D [12]: 8.17E+02
D (Table S5, 2nd batch, incubation 1): 9.52E+02
D (Table S5, 2nd batch, incubation 2): 1.14E+03
D (Table S5, 2nd batch, incubation 3): 8.63E+02
logD at 1 h ([5]; pH 7.4, LogD, pH 7.4): 3.06
Structure (SMILES): COC(=O)Nc1nc2ccc(C(=O)c3ccccc3)cc2[nH]1 [Mebendazole]

Papp A→B ([7]; Mean, 10 µM): 21.8 ×10⁻⁶ cm/s
Papp A→B ([7]; replicate 1, 10 µM): 19.8 ×10⁻⁶ cm/s
Papp A→B ([7]; replicate 2, 10 µM): 23.8 ×10⁻⁶ cm/s
Papp B→A ([7]; Mean, 10 µM): 18.7 ×10⁻⁶ cm/s
Papp B→A ([7]; replicate 1, 10 µM): 19.5 ×10⁻⁶ cm/s
Papp B→A ([7]; replicate 2, 10 µM): 17.9 ×10⁻⁶ cm/s
Structure (SMILES): CC(C(=O)O)c1cccc(C(=O)c2ccccc2)c1 (centres unmarked) [Ketoprofen]
